Test results: article PMC10382584, “Macrocyclization of linear molecules by deep learning to facilitate macrocyclic drug candidates discovery” (Nature Communications, 2023)
Values joined by “and” are separate entries in the source; they are usually repeats but may differ in a detail not shown here. Equal values may be shown once. Read-outs that look alike come from different tables or passages of the source. One block for each compound: values may come before it.

Columns and labels:
JAK2 = target: T1, JAK2 (Homo sapiens, UniProt O60674); experiment: JAK2 enzyme assay (Z'-LYTE kinase assay kit); type: biochemical
T1 construct: 0.05–0.42 ng JAK2, 2 μM peptide substrate (Tyr06)
T1 sequence (O60674 whole entry): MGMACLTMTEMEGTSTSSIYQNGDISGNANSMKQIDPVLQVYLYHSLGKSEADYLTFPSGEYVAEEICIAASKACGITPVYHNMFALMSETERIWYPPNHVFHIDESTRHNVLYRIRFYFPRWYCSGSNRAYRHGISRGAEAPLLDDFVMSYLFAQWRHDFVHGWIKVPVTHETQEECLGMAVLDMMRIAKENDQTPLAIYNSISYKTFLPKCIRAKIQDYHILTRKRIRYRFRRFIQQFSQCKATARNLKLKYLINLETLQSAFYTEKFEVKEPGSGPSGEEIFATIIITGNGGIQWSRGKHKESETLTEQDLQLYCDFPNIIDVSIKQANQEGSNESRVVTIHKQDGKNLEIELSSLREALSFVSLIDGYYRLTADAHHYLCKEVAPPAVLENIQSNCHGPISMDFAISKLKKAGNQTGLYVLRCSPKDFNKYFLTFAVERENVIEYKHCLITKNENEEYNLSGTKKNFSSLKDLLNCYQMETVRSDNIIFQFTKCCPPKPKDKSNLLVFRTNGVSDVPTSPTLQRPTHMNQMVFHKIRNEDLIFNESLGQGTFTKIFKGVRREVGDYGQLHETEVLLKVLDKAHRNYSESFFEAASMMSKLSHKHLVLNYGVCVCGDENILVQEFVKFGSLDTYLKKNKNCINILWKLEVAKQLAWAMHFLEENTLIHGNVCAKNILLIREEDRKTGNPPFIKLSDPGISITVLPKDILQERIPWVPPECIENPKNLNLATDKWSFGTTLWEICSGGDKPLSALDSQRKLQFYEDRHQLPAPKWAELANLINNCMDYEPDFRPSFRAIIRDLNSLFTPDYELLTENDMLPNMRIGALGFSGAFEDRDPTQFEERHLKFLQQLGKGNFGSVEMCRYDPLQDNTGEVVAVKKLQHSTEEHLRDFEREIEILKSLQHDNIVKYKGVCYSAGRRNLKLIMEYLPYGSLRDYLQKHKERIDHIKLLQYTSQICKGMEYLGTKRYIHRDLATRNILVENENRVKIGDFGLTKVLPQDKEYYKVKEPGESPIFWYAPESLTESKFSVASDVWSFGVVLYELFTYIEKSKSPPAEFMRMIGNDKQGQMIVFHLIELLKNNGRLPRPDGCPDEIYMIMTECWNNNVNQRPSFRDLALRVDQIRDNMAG

SET-2 cells = experiment: Cell proliferation assay (CCK-8), SET-2 cells; type: cell-based, human; conditions: for Inhibition (%): single wells, replicates 1 and 2
Description: (§1) The human erythroid leukemia (HEL 92.1.7) cells were purchased from the American Type Culture Collection (ATCC, TIB-180), and the human megakaryoblastic (SET2) cells were obtained from German Collection of Microorganisms and Cell Cultures (DSMZ, ACC 608). The anti-proliferative activities of compounds were evaluated using WST-8 cell counting kit-8 (Elabscience). HEL and SET-2 cells were seeded at 5000 cells/well in 70 μL RPMI-1640 medium (Hyclon) with 10% FBS (Gibco) to the 96-well plate and incubated overnight at 37 °C with 5% CO2. The compounds were serially diluted in RPMI-1640 medium, and cells were treated separately with 30 μL various concentrations of compounds for 72 h. The final DMSO concentration in the culture wells was 0.1%, which had no effect on the cell viability. Finally, 10 μL of CCK-8 solution was added into the wells. 4 h later, the absorbance values at 450 nm were recorded. IC50 values were determined using GraphPad Prism v8.3.0, and three parallel experiments were performed.

[1] = Chemical stability in DMSO stock solution (HPLC purity); type: physicochemical; conditions: mean±SD
Source text: compounds were formulated in the solubilizing vehicle (5% DMSO/30% PEG400/65% […]
safety to the mice in the test.
6. What was the sample dissolved in for the in vitro and in vivo experiments? Response: The solvent information for the in vitro and in vivo experiments has been added in the revised manuscript. […]
7. Was the stability of the different compounds assessed and compared to Fedratinib? This is generally a critical point in macrocyclic studies. […]
in DMSO stock solution. Test compounds were incubated at room temperature and 60 ℃, respectively, for 72 h, and their purities (%) were determined using HPLC equipped with a CORTECS C18 column (4.6*50 mm, 2.7 μm particle size) and a UV/VIS detector setting of λ=210 nm. All co mpounds were eluted with the two solvent systems ([…] as organic phase in Method I and CH3OH as organic phase in Method II) at a flow rate of 0.3 ml/min. Each experiment repeated for three times and the results are represented as mean±SD.
Ta b e l R 1 . Comparison of chemical stability of different compounds at room temperature and 60 ℃, respectively.

HEL cells = experiment: Cell proliferation assay (CCK-8), HEL cells; type: cell-based, human; conditions: for Inhibition (%): single wells, replicates 1 and 2
Description: as §1

DSS-induced colitis mice = experiment: In vivo efficacy study, DSS-induced colitis model; design: species or system male BALB/c mice; conditions: SASP 500 mg/kg; for Body weight (Fig. 6a) / DAI score (Fig. 6b): individual mice

IC50 (JAK2; JAK2, 25 μM ATP, mean ± SD, n = 3, read-out: Enzyme Inhibitory Activity (IC50)): 0.364 µM
IC50 (JAK2; JAK2 enzyme, mean of 3 replicates, read-out: IC50/μM mean, enzyme inhibitory activity): 0.364 µM
IC50 (JAK2; JAK2 enzyme, mean ± SD of 3 replicates, read-out: IC50/μM mean ± SD, enzyme inhibitory activity): 0.364 ± 0.007 µM
IC50 (JAK2; JAK2 enzyme, single-replicate fits (replicates 1-3), read-out: IC50/μM (individual replicates), enzyme inhibitory activity): 0.366 µM and 0.356 µM and 0.37 µM
purity after incubation in DMSO stock solution ([1]; 60 ℃, 0 h): 99.59±0.13%
purity after incubation in DMSO stock solution ([1]; 60 ℃, 2 h): 99.60±0.06%
purity after incubation in DMSO stock solution ([1]; 60 ℃, 24 h): 100.00±0.00%
purity after incubation in DMSO stock solution ([1]; 60 ℃, 48 h): 99.61±0.01%
purity after incubation in DMSO stock solution ([1]; 60 ℃, 72 h): 99.43±0.09%
purity after incubation in DMSO stock solution ([1]; Room Temperature, 0 h): 99.65±0.05%
purity after incubation in DMSO stock solution ([1]; Room Temperature, 2 h): 99.65±0.05%
purity after incubation in DMSO stock solution ([1]; Room Temperature, 24 h): 100.00±0.00%
purity after incubation in DMSO stock solution ([1]; Room Temperature, 48 h): 99.99±0.01%
purity after incubation in DMSO stock solution ([1]; Room Temperature, 72 h): 99.50±0.06%
Compound: Cc1cnc2nc1Nc1cccc(c1)C(=O)N(C)Cc1cc(ccc1OCCN1CCCC1)N2 [Compound 2]
Inhibition (%) (SET-2 cells; SET-2 cell lines, 0.0977 μM): 7.592% and 1.623% and 1.518% and -0.378% and 0.918% and 6.534%
Inhibition (%) (SET-2 cells; SET-2 cell lines, 0.1953 μM): 8.325% and -1.100% and -4.241% and -2.322% and 3.294% and 8.909%
Inhibition (%) (SET-2 cells; SET-2 cell lines, 0.3906 μM): 0.681% and -1.309% and -10.209% and -2.322% and 6.965% and 5.562%
Inhibition (%) (SET-2 cells; SET-2 cell lines, 0.7813 μM): -8.429% and 1.100% and -6.440% and -0.270% and 5.886% and 6.102%
Inhibition (%) (SET-2 cells; SET-2 cell lines, 1.5625 μM): -4.869% and -5.916% and -2.880% and 1.998% and 4.914% and -0.162%
Inhibition (%) (SET-2 cells; SET-2 cell lines, 3.1250 μM, 3.125 µM): 4.031% and -0.576% and -2.984% and 1.674% and 9.233% and -1.350%
Inhibition (%) (SET-2 cells; SET-2 cell lines, 6.2500 μM, 6.25 µM): 8.744% and 16.702% and 4.555% and 8.801% and 8.153% and 7.613%
Inhibition (%) (SET-2 cells; SET-2 cell lines, 12.5000 μM, 12.5 µM): 20.471% and 17.330% and 11.885% and 18.953% and 16.793% and 14.741%
IC50 (SET-2 cells; SET-2 cell lines, single-replicate fits, read-out: IC50/μM (individual replicates), cellular antiproliferative activity): > 25 µM
IC50 (SET-2 cells; SET-2 cells, 72 h, mean ± SD, read-out: Cellular Antiproliferative Activity (IC50) SET-2): > 25 µM
Inhibition (%) (HEL cells; HEL cell lines, 0.0977 μM): 2.051% and -1.891% and 1.838% and 11.186% and -5.882% and -1.006%
Inhibition (%) (HEL cells; HEL cell lines, 0.1953 μM): 0.772% and 1.838% and 2.477% and 15.575% and -7.833% and -8.321%
Inhibition (%) (HEL cells; HEL cell lines, 0.3906 μM): 2.264% and 1.518% and 1.625% and 18.866% and -1.250% and -7.345%
Inhibition (%) (HEL cells; HEL cell lines, 0.7813 μM): 10.786% and 8.762% and 8.549% and 18.744% and 6.553% and -6.614%
Inhibition (%) (HEL cells; HEL cell lines, 1.5625 μM): 18.882% and 12.064% and 2.264% and 20.207% and 10.332% and -0.152%
Inhibition (%) (HEL cells; HEL cell lines, 3.1250 μM, 3.125 µM): 25.273% and 19.521% and 12.916% and 41.664% and 20.207% and 14.721%
Inhibition (%) (HEL cells; HEL cell lines, 6.2500 μM, 6.25 µM): 42.104% and 34.754% and 32.197% and 45.931% and 34.837% and 31.058%
Inhibition (%) (HEL cells; HEL cell lines, 12.5000 μM, 12.5 µM): 71.398% and 70.120% and 69.694% and 81.042% and 74.825% and 72.874%
IC50 (HEL cells; HEL cell lines, mean of 2 replicates, read-out: IC50/μM mean, cellular antiproliferative activity): 7.34 µM
IC50 (HEL cells; HEL cell lines, mean ± sd of 2 replicates, read-out: IC50/μM mean ± sd, cellular antiproliferative activity): 7.34 ± 0.44 µM
IC50 (HEL cells; HEL cell lines, single-replicate fits, read-out: IC50/μM (individual replicates), cellular antiproliferative activity): 7.03 µM and 7.65 µM
IC50 (HEL cells; HEL cells, 72 h, mean ± SD, read-out: Cellular Antiproliferative Activity (IC50) HEL): 7.34 ± 0.44 µM

Compound: O=C(O)c1cc(/N=N/c2ccc(S(=O)(=O)Nc3ccccn3)cc2)ccc1O [Salicylazosulfapyridine]
Body weight (Fig. 6a) (DSS-induced colitis mice; day 0): 22.7 and 23.7 and 19.3 and 23.6 and 21.6 and 22.9 and 21.7 (2×)
DAI score (Fig. 6b) (DSS-induced colitis mice; day 0): 0
DAI score (Fig. 6b) (DSS-induced colitis mice; day 1): 0 (7×) and 1
Body weight (Fig. 6a) (DSS-induced colitis mice; day 1, in g (unit assumed)): 23.2 and 23.6 and 22.1 and 24.5 and 21.4 and 22.4 and 22 and 22.5
DAI score (Fig. 6b) (DSS-induced colitis mice; day 2): 0 (7×) and 1
Body weight (Fig. 6a) (DSS-induced colitis mice; day 2, in g (unit assumed)): 23.3
DAI score (Fig. 6b) (DSS-induced colitis mice; day 3): 1 (6×) and 0 (2×)
DAI score (Fig. 6b) (DSS-induced colitis mice; day 4): 4 and 2 and 1 (4×) and 3 and 0
Body weight (Fig. 6a) (DSS-induced colitis mice; day 4, in g (unit assumed)): 22.3 and 22.4 and 22.1 and 23.7 and 20.4 and 22.9 and 21.3 and 22.8
DAI score (Fig. 6b) (DSS-induced colitis mice; day 5): 4 and 2 (4×) and 1 (2×) and 6
Body weight (Fig. 6a) (DSS-induced colitis mice; day 5, in g (unit assumed)): 20.8 and 20.9 and 21.8 and 22.6 and 19.7 and 21.4 and 20.2 and 21.2
DAI score (Fig. 6b) (DSS-induced colitis mice; day 6): 5 (4×) and 7 and 3 and 1 (2×)
Body weight (Fig. 6a) (DSS-induced colitis mice; day 6, in g (unit assumed)): 19 and 19.1 and 21.1 and 21.3 and 18.6 and 19.3 and 19.2 and 20.2
DAI score (Fig. 6b) (DSS-induced colitis mice; day 7): 8 and 6 and 1 and 4 and 5 (2×) and 3 and 2
Body weight (Fig. 6a) (DSS-induced colitis mice; day 7, in g (unit assumed)): 16.8 and 17.9 and 20.5 and 20.7 and 18.1 and 17.6 and 17 and 18.6
DAI score (Fig. 6b) (DSS-induced colitis mice; day 8): 2 (2×) and 5 and 1 (3×) and 0 (2×)
Body weight (Fig. 6a) (DSS-induced colitis mice; day 8, in g (unit assumed)): 16.9 and 16.6 and 19.6 and 19.9 and 16.5 and 17.3 and 18.4 and 19.2
Body weight (Fig. 6a) (DSS-induced colitis mice; day 9): 18 (2×) and 17.2 and 19.6 and 20.6 and 15.7 and 19.4 and 20.8
DAI score (Fig. 6b) (DSS-induced colitis mice; day 9): 0 (7×) and 1
DAI score (Fig. 6b) (DSS-induced colitis mice; day 10): 2 (4×) and 1 (2×) and 3 and 0
Body weight (Fig. 6a) (DSS-induced colitis mice; day 10, in g (unit assumed)): 17.1 and 16.7 and 19.2 and 21.8 and 17.6 and 20.2 and 22.1
DAI score (Fig. 6b) (DSS-induced colitis mice; day 11): 0 (5×) and 1 (2×)
Body weight (Fig. 6a) (DSS-induced colitis mice; day 11, in g (unit assumed)): 17.6 and 16.3 and 19.7 and 21.9 and 19.1 and 19.8 and 22.6
DAI score (Fig. 6b) (DSS-induced colitis mice; day 12): 0
Body weight (Fig. 6a) (DSS-induced colitis mice; day 12, in g (unit assumed)): 19 and 17.1 and 20.3 and 22.2 and 19.5 and 21.5 and 22.4
Body weight (Fig. 6a) (DSS-induced colitis mice; day 13, in g (unit assumed)): 18.8 and 17.7 and 20 and 23.6 and 20.2 and 21.5 and 22.6
Body weight (Fig. 6a) (DSS-induced colitis mice; day 14, in g (unit assumed)): 19.5 and 18.6 and 19.8 and 24.4 and 21 and 22.1 and 22.5
HE staining score (Fig. 6d) (DSS-induced colitis mice; individual colon tissues (n = 8)): 3 and 1 and 2
